Laboratory results as given in patent US7192980B2, “Certain substituted polyketides, pharmaceutical compositions containing them and their use in treating tumors” (Novartis AG, priority 2001, dated 2007).

How the values were obtained:
Format in all cases: cell-based
HCT 116 colon carcinoma = assay: Anchorage Dependent Growth Monolayer Assay (ADGMA), HCT 116; conditions: Homo sapiens, 72 h; HCT 116 colon carcinoma cells, 3-day exposure, MTT, A540; * = average of two independent experiments; read-out: IC50 HCT116
Description: (§1) As indicated above, all of the compounds of formula I are anti-tumor agents and are, therefore, useful in inhibiting the growth of various lymphomas, sarcomas, carcinomas, myelomas, and leukemia cell lines. […] This assay was adapted from the 60 cell line assay used by the National Cancer Institute (NCI) with the following modifications:
(§2) 1) four cell lines representative for the important tumor types, viz., MIP 101 colon carcinoma, HCT 116 colon carcinoma, 1A9 ovarian carcinoma and 1A9PTX22 ovarian carcinoma were utilized; and 2) a tetrazolium derivative, viz., MTT, was utilized to determine cell density.
(§3) The ADGMA compares the number of viable cells following a 3-day exposure to a test compound relative to the number of cells present at the time the test compound was added. […] The absorbance at 540 nm (A540) of the formazan derivative is proportional to the number of viable cells. The IC50 for a test compound is the concentration of compound required to reduce the final cell number to 50% of the final control cell number. If cell proliferation is inhibited, the assay further defines compounds as cytostatic (cell number after 3-day compound incubation>cell number at time of compound addition) or cytotoxic (cell number after 3-day compound incubation<cell number at time of compound addition).
(§4) The HCT 116 colon carcinoma cell line was obtained from the American Type Culture Collection (ATCC, Rockville, Md.). The MIP 101 colon carcinoma was obtained from Dr. Robert Kramer (Bristol Meyers Squibb) and was previously described (Niles R M, Wilhelm S A, Steele G D JR, Burke B, Christensen T, Dexter D, O'Brien M J, Thomas P, Zamcheck N. Isolation and characterization of an undifferentiated human colon carcinoma cell line (MIP 101). Cancer Invest. 1987;5(6):545–52). The 1A9 and the 1A9PTX22 ovarian tumor cell lines were obtained from Dr. Tito Fojo, Medicine Branch, Division of Clinical Sciences, National Cancer Institute, National Institutes of Health, Bethesda, Md. 20892. The 1A9 is a clone of the ovarian carcinoma cell line, A2780 (Giannakakou P, Sackett, D L, Kang Y-K, Zhan Z, Buters J T M, Fojo T, Poruchynsky M S. Paclitaxel-resistant human ovarian cancer cells have mutant β-tubulins that impaired paclitaxel-driven polymerization. J. Biol. Chem. 1997, 272(4):17118–17125). The 1A9PTX22 subline was isolated as an individual clone from the 1A9 cell line in a single step selection by exposure to 5 ng/mL paclitaxel in the presence of 5 μg/mL of verapamil. All cell lines were used between passages 4–20 following thawing. MIP 101 colon carcinoma, HCT 116 colon carcinoma, 1A9 ovarian carcinoma and 1A9PTX22 ovarian carcinoma cell lines are maintained and plated in RPMI 1640 medium containing 10% fetal bovine serum.
(§5) Cells are trypsinized and counted using a hemacytometer to determine cell concentrations. Cells were then plated in their respective maintenance media (200 μL/well) in 96-well plates at the following concentrations: MIP 101, 2000 cells/well, HCT 116, 2000 cells/well, 1A9, 10000 cells/well, and 1A9PTX22, 10000 cells/well. […] Initial cell densities, assayed one day after plating, are roughly 0.10–0.20 A540 absorbance units greater than the media blank. Ninety-six-well plates were seeded on day 0 and the test compounds are added on day 1. A “time 0” plate was created that received media only in row A and one cell line/row in rows B–E. The “time 0” plate was processed 24 hours after plating (at the time when drugs were added to experimental plates), as follows: To each well 5 micoliters of the MTT stock solution (0.5 mg/mL in PBS) was added to each well and then incubated for three hours at 37° C., 5% CO2, in a humidified environment. Media was then carefully and completely removed. Plates were allowed to dry in the dark. Dimethylsulfoxide (DMSO) was added to each well (100 μL/well) and plates were placed on an orbital shaker for 2 hours. […]

MIP 101 colon carcinoma = assay: Anchorage Dependent Growth Monolayer Assay (ADGMA), MIP 101; conditions: Homo sapiens, Colon carcinoma cell, 72 h; MIP 101 colon carcinoma cells, 3-day exposure, MTT, A540; * = average of two independent experiments
Description: as §1, §2, §3, §4, §5

[1] = test system: 1A9PTX22 ovarian carcinoma; assay: Anchorage Dependent Growth Monolayer Assay (ADGMA), 1A9PTX22; conditions: Homo sapiens, 1A9/ptx-22, 72 h; 1A9PTX22 ovarian carcinoma cells (paclitaxel-selected subline), 3-day exposure, MTT, A540; * = average of two independent experiments
Description: as §1, §2, §3, §4, §5

1A9 ovarian carcinoma = assay: Anchorage Dependent Growth Monolayer Assay (ADGMA), 1A9; conditions: Homo sapiens, Ovarian carcinoma cell, 72 h; 1A9 ovarian carcinoma cells, 3-day exposure, MTT, A540; * = average of two independent experiments
Description: as §1, §2, §3, §4, §5

SMILES | IC50 (HCT 116 colon carcinoma) | IC50 (MIP 101 colon carcinoma) | IC50 [1] | IC50 (1A9 ovarian carcinoma)
C=C/C=C\[C@H](C)C(OC(N)=O)C(C)C(O)C(C)C/C(C)=C\[C@H](C)[C@@H](O)[C@@H](C)/C=C\C(=O)N(C)c1ccccc1 (stereo partly drawn) [Ex. 4, (2Z,7Z,10S,11R,12S,13S,14S,15Z)-13-[(aminocarbonyl)oxy]-5,11-dihydroxy-N,4,6,8,10,12,14-heptamethyl-N-phenyl 2,7,15,17-octadecatetraenamide] | 800 nM | 3200 nM | 400 nM | 500 nM
C=C/C=C\[C@H](C)C(OC(N)=O)C(C)C(O)C(C)C/C(C)=C\[C@H](C)[C@@H](O)[C@@H](C)/C=C\COc1ccccc1 (stereo partly drawn) [Ex. 3, (2Z,7Z,10S,11R,12S,13S,14S,15Z)-4,6,8,10,12,14-hexamethyl-1-phenoxy-2,7,15,17-octadecatetraene-5,11,13-triol-13-carbamate] | 200 ± 100 nM | 400 ± 100 nM | 100 ± 40 nM | 300 ± 90 nM
C=C/C=C\[C@H](C)[C@H](OC(N)=O)[C@@H](C)[C@H](O)[C@@H](C)C/C(C)=C\C(C)C(O)C(C)/C=C\[C@@H](O)C[C@H]1CCCC(=O)O1 (stereo partly drawn) [Ex. 1, 6-[(2S,3Z,8Z,11S,12R,13S,14S,15S,16Z)-14-[(aminocarbonyl)oxy]-2,6,12-trihydroxy-5,7,9,11,13,15-hexamethyl-3,8,16,18-nonadecatetraenyl]tetrahydro-(6R)-2H-pyran-2-one] | 7 ± 5 nM | 60 ± 10 nM | 7 ± 2 nM | 6 ± 2 nM
C=C/C=C\[C@H](C)C(OC(N)=O)C(C)C(O)C(C)C/C(C)=C\[C@H](C)[C@@H](O)[C@@H](C)CN(C)C(=O)CC1CCCCC1 (some centres unmarked) [Ex. 5] | 300 nM | 600 nM | 80 nM | 400 nM
CC(=O)O[C@H]1C(=O)[C@@]2(C)[C@H]([C@H](OC(=O)c3ccccc3)[C@]3(O)C[C@H](OC(=O)[C@H](O)[C@@H](NC(=O)c4ccccc4)c4ccccc4)C(C)=C1C3(C)C)[C@]1(OC(C)=O)CO[C@@H]1C[C@@H]2O [Paclitaxel, reference compound] | 0.3 ± 0.2 nM | 200 ± 60 nM | 1 ± 1 nM | 47 ± 7 nM
C=C/C=C\[C@H](C)C(OC(N)=O)C(C)C(O)C(C)C/C(C)=C\[C@H](C)[C@@H](O)[C@@H](C)COC(=O)NC1CCCCC1 (stereo partly drawn) [Ex. 2, (5Z,8S,9R,10S,11S,12S,13Z)-11-[(aminocarbonyl)oxy]-3,9-dihydroxy-2,4,6,8, 10,12-hexamethyl-5,13,15-hexadecatrienyl ester cyclohexylcarbamic acid] | 400 nM | 3200 nM | 400 nM | 500 nM
C=C/C=C\[C@H](C)C(OC(N)=O)C(C)C(O)C(C)C/C(C)=C\[C@H](C)[C@@H](O)[C@@H](C)/C=C\C(O)CC1CCCC1 (stereo partly drawn) [Ex. 6, (2S,3Z,5S,6S,7S,8Z,11S,12R,13R,14S,15S,16Z)-1-cyclopentyl-5,7,9,11,13,15-hexamethyl-3,8,16,18-nonadecatetraene-2,6,12,14-tetrol-14-carbamate] | 1 nM | 6 nM | 1 nM | 0.3 nM
C=C/C=C\[C@H](C)C(OC(N)=O)C(C)C(O)C(C)C/C(C)=C\[C@H](C)[C@@H](O)[C@@H](C)/C=C\C(O)CC(C)C (stereo partly drawn) [Ex. 7, (2S,3Z,5S,6S,7S,8Z,11S,12R,13R,14S,15S,16Z)-1-isopropyl-5,7,9,11,13,15-hexamethyl-3,8,16,18-nonadecatetraene-2,6,12,14-tetrol-14-carbamate] | 30 nM | 100 nM | 60 nM | 30 nM
